Experimental data from patent US20100092453A1, “Method of producing porous microparticles” (priority 2006, published 2010).

Key:
[1] = In vitro dry powder inhaler deposition, Andersen Cascade Impactor
Method: The pulmonary deposition of the dry powders was investigated using an Andersen Cascade Impactor (ACI) (1 ACFM Eight Stage Non-Viable Cascade Impactor, Graseby Andersen, Atlanta, Ga.). […] Size 3 hard gelatin capsules (Farillon Ltd., U.K.) were filled to approximately 50% with the dry powder (approximately 25 mg of powder). […] The amount of powder deposited on each stage of the impactor was determined by weight, UV analysis or HPLC analysis.

[2] = Density measurements (bulk, tap, Carr's compressibility index); type: physicochemical
Method: Dublin 12) with a funnel. The weight of the powder required to fill the 1 ml graduated syringe was recorded to calculate bρ. […] The resultant volume was recorded [NT]ρ. Each measurement was performed in triplicate. The Carr's compressibility index of some of the systems was calculated from the following equation: compressibility index(%)=[(tap density-bulk density)/tap density]×100 Lower values of the index are desirable as they indicate better flow.

[3] = Suspension sedimentation analysis (water/Tween 80); type: physicochemical; settings: water/Tween 80 (96:4 v/v)
Method: Sedimentation analysis was carried out on suspensions of bendroflumethiazide (BFMT) and sulfadimidine. 25 ml suspensions were prepared by mixing water and Tween 80 (96:4 v/v) with 150 mg of the drug powder. The suspensions were transferred to 25 ml graduated cylinders, mixed thoroughly and their sedimentation observed over time.

[4] = Suspension stability of MDI systems in HFA-134a; type: physicochemical; settings: BFMT in HFA-134a
Method: In order to prepare metered dose inhalers, 20 mg of powder was weighed into glass vials. Afterwards a 25 μl metering valve (Bespak, UK) was crimped onto the glass vial and the liquid propellant HFA-134a was added through the nozzle. The final weight of each MDI (without the container and metering valve) was 10 g. The last two steps were performed using a Pamasol P 2016 aerosol filling station (Pamasol Willi Mader AG, Pfäffikon, Switzerland). Prepared MDIs were homogenised in a Bransonic 220 ultrasonic bath (UK) for 1 min.

| Structure (SMILES) | mass median aerodynamic diameter (MMAD) [1] | compressibility index ([2]; Carr's index from tap and bulk density) | time to completely settle in suspension [3] | bulk density [2] | tap density [2] | sedimentation of powder particles in suspension (observation) ([3]; observed up to four hours) | sedimentation in MDI after 4 hours ([4]; 4 hours) | sedimentation in MDI after seven days ([4]; 7 days) |
| --- | --- | --- | --- | --- | --- | --- | --- | --- |
| Cc1cc(C)nc(NS(=O)(=O)c2ccc(N)cc2)n1 [Micronised sulfadimidine, sulfadimidine] | 14.4±4.9 μm | 50.3% | ≤ 30 min |  |  |  |  |  |
| NS(=O)(=O)c1cc2c(cc1C(F)(F)F)NC(Cc1ccccc1)NS2(=O)=O (stereo not shown) [raw BFMT, bendroflumethiazide] |  |  |  | 0.29 g/mL | 0.58 g/mL | completely settle in a matter of seconds | noticeable sedimentation | completely settled |
| O=C(O)c1cc(=O)c2c(OCC(O)COc3cccc4oc(C(=O)O)cc(=O)c34)cccc2o1 [sodium cromoglycate] |  |  |  | 0.341 ± 0.024 g/mL | 0.661 ± 0.023 g/mL |  |  |  |
